Test results as given in patent US7736899B1, “Cells and method for producing proteins comprising an unconventional amino acid” (priority 1998, dated 2010).

Legend:
Assay type in all cases: cell-based, E. coli
[1] = test system: strain β5366 (wild-type valS allele); experiment: Zone of growth inhibition on Petri dishes, sensitivity to noncanonical amino acids; conditions: 24 h at 30° C.; for effect on growth (zone of inhibition): central well with 0.1 ml of 100 mM amino acid solution
[2] = test system: strain β5455 (valS T222P); experiment: as above; conditions: 24 h at 30° C.
Method: (§1) The strains β5455, β8144 and β8146 are tested for their sensitivity to artificial amino acids which show steric resemblance to valine. The test is carried out on dishes containing glucose of MS mineral medium supplemented with thymidine. The cells are cultured in aerobic medium (glucose MS mineral medium, 0.3 mM thymidine) for 24 h at 30° C. and diluted to 1/250 in MS mineral medium. 0.5 ml of this cell suspension is plated out onto Petri dishes containing 25 ml of glucose MS mineral medium. A well is then hollowed out at the center of the dish and filled with 0.1 ml of an amino acid solution:
(§2) The dishes are then incubated for 24 h at 30° C. and the possible appearance on the dishes of a zone of inhibition around the well is recorded. The diameters of the limited zones of growth inhibition on Petri dishes are measured: […]

[3] = test system: strain β8146 (mutated valS); experiment: as above; conditions: 24 h at 30° C.
Method: as §1, §2

[4] = test system: strain β8144 (mutated valS); experiment: as above; conditions: 24 h at 30° C.
Method: as §1, §2

modified strain β8144 = experiment: Phenotypic suppression by metabolic precursors of cysteine (growth factor replacement)
Excerpt: (§3) The nutrient requirement for cysteine of the modified strains β8144 and β8146 is exploited in order to characterize metabolic precursors which may substitute for cysteine in the culture medium without giving rise to degradation by oxidation. […] However, the addition of none of these substances allows growth of the strain β1308 carrying a chromosomal deletion of the thyA gene of thymidylate synthase, thus excluding their contamination with traces of thymine or of thymidine.

modified strain β8146 = experiment: as above
Excerpt: as §3

[5] = test system: strain β5274 (thyA:Ile146); experiment: Phenotypic suppression by cysteine of thyA:Ile146 strain; conditions: 0.1 mM
Method: The plasmid pTS2 thus obtained propagates the thyA:Ile146 allele in which position 146 occupied in the wild-type thyA gene by the UGC codon of cysteine is occupied by the AUA codon of isoleucine. The strain which propagates the thyA:Ile146 plasmid allele, β5274, is shown to require the nutritional supply of thymine, of thymidine or of cysteine in excess, as was the strain β5366. The phenotypic suppression of the strain β5274 by the cysteine is abolished with 0.1 mM of isoleucine, as was that of the strain β5366 with valine. Thus, it is as though the isoleucyl-tRNA synthetase is capable of forming erroneous Cys-tRNAs^Ile in the presence of an excess of cysteine, and that this erroneous formation is prevented by the presence of an excess of isoleucine.

[6] = test system: twelve clones derived from strain β5366; experiment: Growth factor test of clones from serial culture on plates with nutrient factors; conditions: glucose MS mineral medium plates
Method: The strain β5366 carrying the thyA:Val146 missense allele on the plasmid pTS1 is cultured in glucose MS mineral medium (2 g/l, Richaud et al., 1993) supplemented with 0.3 mM of thymidine, for 24 h at 30° C. in aerobiosis. The cells are then washed twice with deoxygenated MS mineral medium. A deoxygenated nutrient medium containing 10 ml of glucose MS mineral medium supplemented with 1.5 mM of cysteine is inoculated at 1/100 using the washed cells. The cells are then cultured in anaerobiosis for 24 h at 30° C., and a fresh tube containing 10 ml of deoxygenated cysteine glucose MS mineral medium is inoculated with a 1/100 dilution of the previous culture in the stationary phase. This procedure is repeated 26 times. At the end of this serial propagation, 12 clones from the liquid culture are isolated on plates containing thymidine (0.3 mM) glucose (2 g/l) MS mineral medium, in aerobiosis, and stored in suspension in the same liquid medium at −80° C. The twelve clones are tested on plates containing glucose MS mineral medium supplemented with nutrient factors. All these clones are shown to require thymine or thymidine as a growth factor, unless cysteine is present in the culture medium, at a concentration of at least 1.5 mM.

[7] = test system: strain β5366 (thyA:Val146); experiment: Growth on cysteine diffusion gradient in Petri dishes
Excerpt: (§4) The plasmid pTS1 thus obtained propagates the thyA:Val146 allele, in which position 146 occupied in the wild-type thyA gene by the UGC codon of cysteine is occupied by the GUA codon of valine. The plasmid pTS1 is introduced by transformation, carried out according to the method of Sambrook et al. (1989), into the E. coli K12 ΔthyA strain, β1308 (Lemeignan et al., 1993), in which the chromosomal thymidylate synthase gene, thyA, is deleted. The transformed strain carrying the thyA:Val146 plasmid allele, β5366, is shown to be incapable of growing without thymine or thymidine being added to the culture medium, as is the strain β1308 from which it derives. […] Thus, it is as though the cysteine can infiltrate into the valyl-tRNA synthetase active site to form erroneous Cys-tRNAs^Val capable of correcting the substitution of the cysteine in the thymidylate synthase active site, with valine. The excess of valine would prevent the formation of these erroneous Cys-tRNAs^Val.

strain β1308 (ΔthyA) = experiment: as above; conditions: 30° C., glucose MS mineral medium, central well 0.1 ml of 400 mM L-cysteine
Excerpt: as §4

[8] = central well with 0.1 ml of 50 mM amino acid solution
[9] = central well with 0.1 ml of 100 mM amino acid solution

CC(S)[C@H](N)C(=O)O (stereo partly drawn) [L-3-thiol-2-aminobutyrate]
diameter of zone of growth inhibition [1, 8]: 2.0 cm
diameter of zone of growth inhibition [2, 8]: 4.6 cm
diameter of zone of growth inhibition [3, 8]: 4.0 cm
diameter of zone of growth inhibition [4, 8]: 4.0 cm

NC(=O)SC[C@H](N)C(=O)O [S-carbamyl-L-cysteine]
replacement of cysteine as growth factor instead of thymidine or thymine (modified strain β8144; 3 mM in culture medium): capable of replacing cysteine as a growth factor
replacement of cysteine as growth factor instead of thymidine or thymine (modified strain β8146; 3 mM in culture medium): capable of replacing cysteine as a growth factor

CSC[C@H](N)C(=O)O [S-methyl-L-cysteine]
replacement of cysteine as growth factor instead of thymidine or thymine (modified strain β8144; 3 mM in culture medium): capable of replacing cysteine as a growth factor
replacement of cysteine as growth factor instead of thymidine or thymine (modified strain β8146; 3 mM in culture medium): capable of replacing cysteine as a growth factor

NC[C@H](N)C(=O)O [L-2,3-diaminopropionate]
effect on growth (zone of inhibition) [1]: no effect
diameter of zone of growth inhibition [2, 9]: 2.3 cm
diameter of zone of growth inhibition [3, 9]: 1.9 cm
diameter of zone of growth inhibition [4, 9]: 2.7 cm

O=C(O)[C@@H]1CSCN1 [L-thiazolidine-4-carboxylic acid]
replacement of cysteine as growth factor instead of thymidine or thymine (modified strain β8144; 2 mM in culture medium): capable of replacing cysteine as a growth factor
replacement of cysteine as growth factor instead of thymidine or thymine (modified strain β8146; 2 mM in culture medium): capable of replacing cysteine as a growth factor

L-2-aminobutyrate
effect on growth (zone of inhibition) [1]: no effect
diameter of zone of growth inhibition [2, 9]: 5.2 cm
diameter of zone of growth inhibition [3, 9]: 6.7 cm
diameter of zone of growth inhibition [4, 9]: 5.7 cm

CC[C@H](C)[C@H](N)C(=O)O [isoleucine]
effect on phenotypic suppression by cysteine [5]: abolished

CCC[C@H](N)C(=O)O [L-2-aminovalerate]
effect on growth (zone of inhibition) [1]: no effect
diameter of zone of growth inhibition [2, 9]: 2.1 cm
diameter of zone of growth inhibition [3, 9]: 6.7 cm
diameter of zone of growth inhibition [4, 9]: 1.5 cm

N[C@@H](CS)C(=O)O [L-cysteine]
cysteine concentration that replaces thymine or thymidine as growth factor [6]: at least 1.5 mM
growth on cysteine diffusion gradient ([7]; 30° C., glucose MS mineral medium, central well 0.1 ml of 400 mM L-cysteine): marginal growth
growth on cysteine diffusion gradient (strain β1308 (ΔthyA)): no detectable growth

CC(C)[C@H](N)C(=O)O [valine]
effect on growth on a cysteine gradient ([7]; 0.1 mM added to the medium of the Petri dishes): abolishes the growth
